Reference: patent US20260191793A1, “HBV SPECIFIC EXOSOMES AND USES THEREOF” (priority 2022, published 2026)

Tested on: HBV cccDNA
Assay: HBV-infected HepG2-NTCP cells directly transfected with gRNA/Cas9 RNPs, HBV cccDNA qPCR
Format: cell-based, Hepatitis B virus (HBV)
Conditions: direct transfection for 3 days
From the text: To test whether the synthetic gRNA/Cas9 can reduce newly formed HBV cccDNA in HepG2-NTCP cells, the cells with HBV particle-containing supernatants from HepDE19 cells (supernatants harvested 6 days after culture in Tet-free media) were infected. The HepG2-NTCP cells were infected with HBV particles for 6 days and then transfected with gRNA5, gRNA9, gRNA5 plus gRNA9 (in combination), or gRNAc RNPs for 3 days, followed by measuring HBV cccDNA. In another experiment, the infected HepG2-NTCP cells were incubated for 3 days with exosomes packaged with gRNA5, gRNA9, gRNA5 plus gRNA9 (in combination), or gRNAc RNPs, followed by measuring HBV cccDNA.
In another experiment, 1×10^6 HepG2-NTCP cells were infected using supernatants containing HBV particles from HepDE19 cells that were maintained for 6 days. The HBV-infected HepG2-NTCP cells were transfected with gRNA5, gRNA9, gRNA5 plus gRNA9, or gRNAc RNPs as described above. The cells were maintained for 3 days in a complete culture medium and then harvested for HBV cccDNA detection by qPCR.
Total and protein-free HBV DNAs were extracted from whole cell lysate using the Hirt DNA method according to a previously published protocol. […] HBV total DNA and cccDNA were analyzed by real-time PCR using a TaqMan PCR assay. […] The DNA levels were determined by the […] method and values were normalized to the control group.

GGTCTCCATGCGACGTGCAGNGG [gRNA9]
HBV cccDNA levels: significantly reduced

GTTATCGCTGGATGTGTCTGNGG (guide GUUAUCGCUGGAUGUGUCUGNGG; complexed with Cas9 protein, chemistry not fully specified) [gRNA5, tested as synthetic gRNA/Cas9 RNP]
HBV cccDNA levels: significantly reduced
